Where two headings read alike, the source gives them in different places.
Tests used:
Assay in all cases: Greenhouse test, pre-emergence treatment
ECHCG = format: in vivo, Echinocloa crus-galli; settings: Echinochloa crus-galli, 480 h, read-out: observed % activity 20 DAT
In short: (§1)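 Seeds were sown in loamy sand with approximately 3.0% humus, then sprayed at once with actives suspended or emulsified in water. Pots were watered, hooded until rooting, held at 10-25° C. or 20-35° C. by species for 2 to 4 weeks, and scored 0 (no damage) to 100 (no emergence/complete destruction).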

PHACA = format: in vivo, Phalaris canariensis; settings: Phalaris canariensis, pre-emergence, 480 h
In short: as §1

KCHSC = format: in vivo, Kochia scoparia; settings: Bassia scoparia, pre-emergence, 480 h
In short: as §1

BRADC = format: in vivo, Brachiaria decumbens; settings: Urochloa decumbens, pre-emergence, 480 h
In short: as §1

ALOMY = format: in vivo, Alopecurus myosuroides; settings: Alopecurus myosuroides, pre-emergence, 480 h
In short: as §1

LOLMU = format: in vivo, Lolium multiflorum; settings: Lolium multiflorum, pre-emergence, 480 h, pre-emergence, read-out: observed % activity 20 DAT
In short: as §1

GALAP = format: in vivo, Galium aparine; settings: Galium aparine, pre-emergence, 480 h, 40 g ai/ha, 20 DAT; read-out: observed % activity
In short: as §1

SETFA = format: in vivo, Setaria faberi; settings: Setaria faberi, 480 h, use rate 30 g ai/ha, read-out: observed % activity 20 DAT
In short: as §1

AVEFA = format: in vivo, Avena fatua; settings: pre-emergence
In short: as §1

SORHA = format: in vivo, Sorghum halepense; settings: Sorghum halepense, pre-emergence, 480 h; 40 g ai/ha, 20 DAT; read-out: observed % activity
Description: The culture containers used were plastic flowerpots containing loamy sand with approximately 3.0% of humus as the substrate. The seeds of the test plants were sown separately for each species.
For the pre-emergence treatment, the active ingredients, which had been suspended or emulsified in water, were applied directly after sowing by means of finely distributing nozzles. The containers were irrigated gently to promote germination and growth and subsequently covered with transparent plastic hoods until the plants had rooted. This cover caused uniform germination of the test plants, unless this had been impaired by the active ingredients.
Depending on the species, the plants were kept at 10-25° C. or 20-35° C., respectively.
The test period extended over 2 to 4 weeks. During this time, the plants were tended, and their response to the individual treatments was evaluated.
Evaluation was carried out using a scale from 0 to 100. 100 means no emergence of the plants, or complete destruction of at least the aerial moieties, and 0 means no damage, or normal course of growth. A moderate herbicidal activity is given at values of at least 60, a good herbicidal activity is given at values of at least 70, and a very good herbicidal activity is given at values of at least 85.
The respective stated components a and b, and if appropriate, c were formulated as a 10% by weight strength emulsion concentrate and, with addition of the amount of solvent system, introduced into the spray liquor used for applying the active compound.
In the examples, the solvent used was water.
In the examples below, using the method of S. R. Colby (1967) “Calculating synergistic and antagonistic responses of herbicide combinations”, Weeds 15, p. 22ff., the value E, which is expected if the activity of the individual active compounds is only additive, was calculated. E=X+Y−(X·Y/100) where • X=percent activity using active compound a at an application rate A; • Y=percent activity using active compound b at an application rate B; • E=expected activity (in %) by a+b at application rates A+B.
If the value found experimentally is higher than the value E calculated according to Colby, a synergistic effect is present.

POLCO = format: in vivo, Polygonum convolvulus; settings: Fallopia convolvulus, pre-emergence, 480 h, 20 g ai/ha, 20 DAT; read-out: observed % activity
In short: as §1

[1] = 10 g ai/ha, 20 DAT, read-out: observed % activity
[2] = 20 g ai/ha, 20 DAT, read-out: observed % activity
[3] = 10 g ai/ha, read-out: observed % activity 20 DAT
[4] = 20 g ai/ha, read-out: observed % activity 20 DAT
[5] = 30 g ai/ha, read-out: observed % activity 20 DAT
[6] = 40 g ai/ha, read-out: observed % activity 20 DAT
[7] = use rate 30 g ai/ha, read-out: observed % activity 20 DAT
[8] = use rate 60 g ai/ha, 20 DAT, read-out: observed % activity 20 DAT
[9] = use rate 60 g ai/ha, read-out: observed % activity 20 DAT
[10] = 40 g ai/ha, 20 DAT, read-out: observed % activity

SMILES: CC(C)N(C(=O)COc1nnc(C(F)(F)F)s1)c1ccc(F)cc1 [Flufenacet, flufenacet]
- pest or weed control at 30 g/ha (ECHCG; 30 g ai/ha): 75%
- pest or weed control at 60 g/ha (ECHCG; 60 g ai/ha): 95%
- pest or weed control at 30 g/ha (ECHCG; use rate 30 g ai/ha, 20 DAT): 85%
- inhibition at 30 g/ha (ECHCG; use rate 30 g ai/ha): 85%
- inhibition at 10 g/ha (PHACA; [1]): 0%
- inhibition at 20 g/ha (PHACA; [2]): 33%
- pest or weed control at 10 g/ha (PHACA; [3]): 10%
- pest or weed control at 20 g/ha (PHACA; [4]): 65%
- pest or weed control at 30 g/ha (PHACA; [5]): 80%
- pest or weed control at 40 g/ha (PHACA; [6]): 75%
- inhibition at 30 g/ha (PHACA; [7]): 65%
- pest or weed control at 60 g/ha (PHACA; [8]): 98%
- inhibition at 60 g/ha (PHACA; [9]): 98%
- inhibition at 10 g/ha (KCHSC; [1]): 0%
- inhibition at 20 g/ha (KCHSC; [2]): 0%
- inhibition at 40 g/ha (KCHSC; [10]): 0%
- inhibition at 30 g/ha (KCHSC; [7]): 0%
- inhibition at 60 g/ha (KCHSC; [9]): 0%
- inhibition at 40 g/ha (BRADC; [10]): 65%
- pest or weed control at 10 g/ha (BRADC; [3]): 45%
- pest or weed control at 20 g/ha (BRADC; [4]): 40%
- pest or weed control at 30 g/ha (BRADC; [5]): 0%
- pest or weed control at 40 g/ha (BRADC; [6]): 25%
- pest or weed control at 60 g/ha (BRADC; 60 g ai/ha, read-out: observed % activity 20 DAT): 98%
- inhibition at 10 g/ha (ALOMY; [1]): 28%
- pest or weed control at 10 g/ha (ALOMY; [3]): 25%
- pest or weed control at 20 g/ha (ALOMY; [4]): 70%
- pest or weed control at 40 g/ha (ALOMY; [6]): 75%
- inhibition at 30 g/ha (ALOMY; [7]): 75%
- pest or weed control at 60 g/ha (ALOMY; [8]): 80%
- inhibition at 60 g/ha (ALOMY; [9]): 80%
- pest or weed control at 10 g/ha (LOLMU; 10 g ai/ha): 0%
- pest or weed control at 20 g/ha (LOLMU; 20 g ai/ha): 20%
- pest or weed control at 30 g/ha (LOLMU; 30 g ai/ha): 30%
- pest or weed control at 40 g/ha (LOLMU; 40 g ai/ha): 55%
- pest or weed control at 30 g/ha (LOLMU; use rate 30 g ai/ha, 20 DAT): 0%
- inhibition at 30 g/ha (LOLMU; use rate 30 g ai/ha): 20%
- pest or weed control at 60 g/ha (LOLMU; use rate 60 g ai/ha, 20 DAT): 30%
- inhibition at 60 g/ha (LOLMU; use rate 60 g ai/ha): 30%
- inhibition at 40 g/ha (GALAP): 40%
- inhibition at 30 g/ha (SETFA): 98%
- inhibition at 40 g/ha (AVEFA; Avena fatua, 480 h, 40 g ai/ha, 20 DAT, read-out: observed % activity): 10%
- observed % activity 20 DAT (AVEFA; 30 g ai/ha): 0%
- observed % activity 20 DAT (AVEFA; 40 g ai/ha): 55%
- inhibition at 40 g/ha (SORHA): 95%
- inhibition at 20 g/ha (POLCO): 0%

Reference: patent publication US9999222B2, “Herbicidal combination comprising azines” (BASF SE, priority 2014, dated 2018)
